# pEC50: −log10 of the molar value. Read-outs that look alike come from different tables or passages of the source.
# Assays:
# LPS-induced TNFα = assay: Inhibition of LPS-induced TNFα in serum of mice; type: in vivo; details: Mus musculus, read-out: ED50 for inhibition of LPS-induced TNFα
# Protocol: The potency of compounds to inhibit inflammation was quantified in a model in which mice were treated with lipopolysaccharide (LPS). Anti-inflammatory effects were quantified as inhibition of LPS-induced TNFα (S. R. Hyde & R. E. McCallum, Infection & Immunity, 60; 976-982 (1992)). Mice were treated i.p. with 0.5 mg/kg LPS. […] 1½ hours after LPS induction, serum was collected and mice were sacrificed. TNFα levels in serum were quantified using a commercially available Elisa-kit according to the descriptions of the supplier.
# [1] = target: T1, recombinant human-GR (GR) (Homo sapiens, UniProt P04150); assay: Glucocorticoid Receptor Competitor Assay kit (PanVera), fluorescence polarisation binding; details: fluorescence polarisation competition with fluormone GS1 1 nM, GR 4 nM, 90 minutes room temperature
# T1 construct: purchased PanVera
# T1 sequence (P04150 1-777): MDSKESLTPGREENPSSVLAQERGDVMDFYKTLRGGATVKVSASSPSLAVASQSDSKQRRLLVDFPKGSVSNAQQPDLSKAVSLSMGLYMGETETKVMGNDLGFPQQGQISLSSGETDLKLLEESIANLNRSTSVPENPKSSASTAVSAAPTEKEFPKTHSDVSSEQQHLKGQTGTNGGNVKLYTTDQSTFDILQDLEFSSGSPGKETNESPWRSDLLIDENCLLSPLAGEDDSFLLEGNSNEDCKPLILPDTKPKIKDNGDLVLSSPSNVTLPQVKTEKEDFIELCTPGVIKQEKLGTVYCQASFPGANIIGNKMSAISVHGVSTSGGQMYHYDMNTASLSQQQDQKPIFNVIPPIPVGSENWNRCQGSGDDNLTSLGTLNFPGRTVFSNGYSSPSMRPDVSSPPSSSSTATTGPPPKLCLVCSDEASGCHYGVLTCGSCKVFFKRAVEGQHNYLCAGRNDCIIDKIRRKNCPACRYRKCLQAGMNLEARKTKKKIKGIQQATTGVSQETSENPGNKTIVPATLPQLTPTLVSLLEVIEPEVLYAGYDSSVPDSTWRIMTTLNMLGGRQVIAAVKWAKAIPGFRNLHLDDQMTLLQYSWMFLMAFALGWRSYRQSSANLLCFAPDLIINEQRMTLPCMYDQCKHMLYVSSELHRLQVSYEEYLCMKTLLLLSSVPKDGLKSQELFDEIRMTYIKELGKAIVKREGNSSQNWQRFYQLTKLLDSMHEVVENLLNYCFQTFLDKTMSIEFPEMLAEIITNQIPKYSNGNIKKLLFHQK
# Protocol: The affinity of compounds was tested using a Glucocorticoid Receptor Competitor Assay kit (PanVera®). Components of the kit were thawed from −80° C. on ice (Fluormone GS1, recombinant human-GR (GR)) or at room temperature (GR screening buffer, stabilising peptide and DTT). 10 mM test compounds were manually diluted to 20 μM then serially diluted to a final concentration range of 10 μM to 0.1 nM using the BioMek 2000 (Beckman-Coulter) into a black walled 384 welled plate (Matrix technologies). In the following order: fluormone GS1 (1 nM final concentration) is added to all wells excluding the buffer control wells, GR (4 nM final concentration) is added to all wells except minimum and buffer control wells, cortisol (10 μM final concentration) is added to fluormone GS1 control wells only, buffer is added to all wells to a final volume of 40 μl. The plate is covered and incubated at room temperature with agitation for 90 minutes. Readings were taken using the Analyst (LJL) in fluorescence polarisation reading mode. The MilliP ratio is calculated from cps readings obtained in parallel and perpendicular mode. The percent effect of the bound ligand is calculated at each concentration and the dose response curves plotted allowing the EC50 to be calculated. […]
# [2] = mice, 0.5 mg/kg LPS i.p., compound oral or subcutaneous 1 hour before LPS, serum 1½ hours after LPS
Structure (SMILES),ED50 (LPS-induced TNFα; [2]) [mg/kg],also measured
"CN1c2ccccc2[C@@H]2C[C@@H](NC(=O)C(F)(F)F)CCN2c2ccc([N+](=O)[O-])cc21 (relative stereo) [Example 2, cis-2,2,2-trifluoro-N-(1,2,3,4,10,14b-hexahydro-10-methyl-8-nitrodibenzo[b,f]pyrido[1,2-d][1,4]diazepin-2-yl)acetamide]",0.5 to 20,–
"CN1c2ccccc2[C@@H]2C[C@@H](NC(=O)C(F)(F)F)CCN2c2cc(Cl)c(C#N)cc21 (relative stereo) [Example 9, cis-N-(7-chloro-8-cyano-1,2,3,4,10,14b-hexahydro-10-methyl-dibenzo-[b,f]pyrido[1,2-d][1,4]diazepin-2-yl)-2,2,2-trifluoroacetamide]",–,ED50 (LPS-induced TNFα): 0.5 to 20 mg/kg
"Cc1nnsc1C(=O)N[C@H]1CCN2c3ccc([N+](=O)[O-])cc3N(C)c3ccccc3[C@@H]2C1 (relative stereo) [Example 31, cis-N-(1,2,3,4,10,14b-hexahydro-10-methyl-8-nitrodibenzo[b,f]pyrido[1,2-d][1,4]diazepin-2-yl)-4-methyl-1,2,3-thiadiazole-5-carboxamide]",0.5 to 20,–
"CN1c2ccccc2[C@@H]2C[C@@H](NC(=O)C(Cl)Cl)CCN2c2ccc(C#N)cc21 (relative stereo) [Example 5, cis-2,2-dichloro-N-(8-cyano-1,2,3,4,10,14b-hexahydro-10-methyldibenzo-[b,f]pyrido[1,2-d][1,4]diazepin-2-yl)acetamide]",0.5 to 20,–
CC#C[C@]1(O)CC[C@H]2[C@@H]3CCC4=CC(=O)CCC4=C3[C@@H](c3ccc4c(c3)OCO4)C[C@@]21C,–,pEC50 [1]: 8.00
"C[C@]12C=CC(=O)C=C1CC[C@@H]1[C@@H]2[C@@H](O)C[C@@]2(C)[C@H]1CC[C@]2(O)C(=O)CO [prednisolone, reference compound]",0.5,–
"CN1c2ccccc2[C@@H]2C[C@@H](NC(=O)C(F)(F)F)CCN2c2ccc(C#N)cc21 (relative stereo) [Example 3, cis-N-(8-cyano-1,2,3,4,10,14b-hexahydro-10-methyldibenzo[b,f]pyrido[1,2-d][1,4]diazepin-2-yl)-2,2,2-trifluoroacetamide]",0.5 to 20,–
"CN1c2ccccc2[C@@H]2C[C@@H](NC(=O)C(F)(F)F)CCN2c2ccc(C(=O)Nc3ccccc3)cc21 (relative stereo) [Example 4, cis-1,2,3,4,10,14b-hexahydro-10-methyl-N-phenyl-2-(2,2,2-trifluoroacetylamino)dibenzo[b,f]pyrido[1,2-d][1,4]diazepine-8-carboxamide]",0.5 to 20,–

# Source: patent US8133885B2, “Non steroidal glucocorticoid receptor modulators” (Merck Sharp & Dohme Corp., priority 2005, dated 2012)
